Assay results as given in PMC10800876, “Evaluation of proline-rich antimicrobial peptides as potential lead structures for novel antimycotics against Cryptococcus neoformans” (Frontiers in Microbiology, 2024).
Values after ≈ are worked out from the molar mass of the structure shown. Where two headings read alike, the source gives them in different places. Non-standard residues stand in square brackets, D forms with d. Residues, ends and D or L forms follow the SMILES beside them. Ac6c = NC1(C(=O)O)CCCCC1

Experiments:
[1] = system: C. neoformans strains 1841, H99, and KN99α; experiment: Broth microdilution assay (MIC); format: cell-based, Cryptococcus neoformans; settings: strains 1841, H99, and KN99α, 24 h
C. neoformans 1841 [2] = experiment: Antifungal activity assay (CFU on SAB agar); format: cell-based, Cryptococcus neoformans; settings: treatment 3 h, 30 °C, mean ± SD, n = 4; for cell count C. neoformans 1841, 24 h: CFU counted after 24 h; for cell count C. neoformans 1841, 48 h: CFU counted after 48 h
C. neoformans H99 = experiment: Antifungal activity assay (CFU on SAB agar); format: cell-based, Cryptococcus neoformans; settings: treatment 3 h, 30 °C, mean ± SD, n = 4; for cell count C. neoformans H99, 24 h: CFU counted after 24 h; for cell count C. neoformans H99, 48 h: CFU counted after 48 h
C. neoformans KN99α = experiment: Antifungal activity assay (CFU on SAB agar); format: cell-based, Cryptococcus neoformans; settings: treatment 3 h, 30 °C, mean ± SD, n = 4; for cell count C. neoformans KN99α, 24 h: CFU counted after 24 h; for cell count C. neoformans KN99α, 48 h: CFU counted after 48 h
C. neoformans 1841 [3] = experiment: Time-kill assay; format: cell-based, Cryptococcus neoformans; settings: 2.5 μmol/L, 30°C, triplicates
Protocol: The kinetic effects of the antifungal activity were determined by diluting overnight cultures to 5 × 10^4 CFU/mL with 50% SAB in phosphate buffer. Aqueous peptide solutions (20 μL) were added to the cell suspension (80 μL) to give a final peptide concentration of 2.5 μmol/L. Samples were incubated at 30°C on an orbital shaker (750 rpm, Titramax 1,000, Heidolph Instruments GmbH & Co. KG) for 24 h. Before incubation (0 min) and after 45 min, 90 min, 3 h, 6 h, and 24 h incubation, aliquots (10 μL) of samples were taken and diluted with phosphate buffer (10 mmol/L, pH 7.5) to observe countable cell colonies. Aliquots (100 μL) of the diluted cell suspensions were plated on SAB agar plates. Plates were incubated at 30°C and colonies were counted after 24 h.

[4] = system: C. neoformans strains 1841, H99, and KN99α; experiment: Antifungal activity assay (CFU); format: cell-based, Cryptococcus neoformans; settings: peptide concentrations ≥2.5 μmol/L, no colonies visible even after 48 h
[5] = system: HepG2 and HEK293 cell lines; experiment: Cytotoxicity (MTT), for both cell lines; format: cell-based, human
Protocol: Human embryonic kidney (HEK293) and human hepatoma (HepG2) cells were cultured in Dulbecco’s modified Eagle’s/Ham’s F-12 medium (DMEM/F-12) containing 10% (v/v) fetal bovine serum and 1% (v/v) penicillin/streptomycin. Cells (20,000 in 200 μL per well) were seeded into a 96-well plate (polystyrene F-bottom, Greiner Bio-One GmbH) and incubated for 24 h (37°C, 5% CO2). Cells were washed with PBS (100 μL) and peptide solutions (0.6 g/L in DMEM/F-12) were added. The positive control was a dilution series from 12 to 1.5% (v/v) DMSO and the negative control was 12% (v/v) PBS. After incubation (37°C, 24 h, 5% CO2), the supernatant was discarded, fresh medium (90 μL/well) and MTT (10 μL/well, 5 g/L in PBS) were added, and the plate was incubated for 4 h (37°C, 5% CO2). A solution (100 μL) of sodium dodecyl sulfate (10% (v/v)) in hydrochloric acid (10 mmol/L) was added and the plate was incubated again for 24 h (37°C, 5% CO2). Absorbance was recorded at 570 nm relative to the reference at 650 nm ([…] ™ microplate reader). All samples were corrected for the background absorbance of the medium. Relative cell viability was calculated as the ratio of absorbances recorded for treated and untreated cells ([Kolano et al., 2021]; [Brakel et al., 2022a],[b]).

[6] = system: C. neoformans 1841 (serotype D)
[7] = system: C. neoformans H99 (serotype A)
[8] = system: C. neoformans KN99α (serotype A, mating type MATα)
C. neoformans = settings: cited from earlier work
Excerpt: Moreover, these drugs have tremendous side effects due to their high toxicity, particularly kidney damage. In general, the dev ...

in vitro translation = settings: ref Seefeldt et al., 2016; cited from earlier work
Protocol: The putative intracellular mode of action is a very significant finding, supported by CLSM images showing fluorescence in the cytoplasmic region after incubation of C. neoformans with Cf-labeled PrAMPs (Figure 4; Supplementary Figure S3). At this point, we can only speculate about potential targets, such as the ribosomes at the endoplasmic reticulum, which is the primary target of PrAMPs in bacteria, i.e., the 70S ribosome ([Krizsan et al., 2014], [2015a],[b]; [Seefeldt et al., 2015]; [Graf et al., 2017]). […] However, ...

CC(C)C[C@H](NC(=O)[C@H](Cc1ccc(O)cc1)NC(=O)[C@@H]1CCCN1C(=O)[C@H](CCCNC(=N)N)NC(=O)[C@@H]1CCCN1C(=O)[C@H](CCCCN)NC(=O)[C@H](CCCCN)NC(=O)[C@@H]1CCCN1C(=O)[C@H](CCCNC(=N)N)NC(=O)C1(N)CCCCC1)C(=O)N1CCC[C@H]1C(=O)N[C@@H](CCCNC(=N)N)C(=O)N1CCC[C@H]1C(=O)N[C@@H](CCCNC(=N)N)C(=O)N1CCC[C@H]1C(=O)N1CCC[C@H]1C(=O)N[C@@H](CCCNC(=N)N)C(=O)N1CCC[C@H]1C(=O)N[C@H](C(=O)N[C@@H](CCCNC(=N)N)C(N)=O)C(C)C [Chex1Arg20 D4K] (H-[Ac6c]RPKKPRPYLPRPRPPRPVR-NH2; N-terminus assumed)
MIC [1]: 1.6 µM (≈ 3.98 µg/mL)
cell count C. neoformans 1841, 24 h (C. neoformans 1841 [2]; 0.25 µmol/L): 0.4 ± 0.0 x 10^4 CFU/mL
cell count C. neoformans 1841, 48 h (C. neoformans 1841 [2]; 0.25 µmol/L): 2.2 ± 0.3 x 10^4 CFU/mL
cell count C. neoformans 1841, 24 h (C. neoformans 1841 [2]; 2.5 µmol/L): 0.0 ± 0.0 x 10^4 CFU/mL
cell count C. neoformans 1841, 48 h (C. neoformans 1841 [2]; 2.5 µmol/L): 0.0 ± 0.0 x 10^4 CFU/mL
cell count C. neoformans 1841, 24 h (C. neoformans 1841 [2]; 25 µmol/L): 0.0 ± 0.0 x 10^4 CFU/mL
cell count C. neoformans 1841, 48 h (C. neoformans 1841 [2]; 25 µmol/L): 0.0 ± 0.0 x 10^4 CFU/mL
cell count C. neoformans H99, 24 h (C. neoformans H99; 0.25 µmol/L): 2.7 ± 0.4 x 10^4 CFU/mL
cell count C. neoformans H99, 48 h (C. neoformans H99; 0.25 µmol/L): 2.9 ± 0.4 x 10^4 CFU/mL
cell count C. neoformans H99, 24 h (C. neoformans H99; 2.5 µmol/L): 0.0 ± 0.0 x 10^4 CFU/mL
cell count C. neoformans H99, 48 h (C. neoformans H99; 2.5 µmol/L): 0.1 ± 0.0 x 10^4 CFU/mL
cell count C. neoformans H99, 24 h (C. neoformans H99; 25 µmol/L): 0.0 ± 0.0 x 10^4 CFU/mL
cell count C. neoformans H99, 48 h (C. neoformans H99; 25 µmol/L): 0.0 ± 0.0 x 10^4 CFU/mL
cell count C. neoformans KN99α, 24 h (C. neoformans KN99α; 0.25 µmol/L): 2.0 ± 1.2 x 10^4 CFU/mL
cell count C. neoformans KN99α, 48 h (C. neoformans KN99α; 0.25 µmol/L): 2.2 ± 1.1 x 10^4 CFU/mL
cell count C. neoformans KN99α, 24 h (C. neoformans KN99α; 2.5 µmol/L): 0.1 ± 0.1 x 10^4 CFU/mL
cell count C. neoformans KN99α, 48 h (C. neoformans KN99α; 2.5 µmol/L): 0.1 ± 0.1 x 10^4 CFU/mL
cell count C. neoformans KN99α, 24 h (C. neoformans KN99α; 25 µmol/L): 0.8 ± 1.3 x 10^4 CFU/mL
cell count C. neoformans KN99α, 48 h (C. neoformans KN99α; 25 µmol/L): 0.8 ± 1.3 x 10^4 CFU/mL
incubation time after which no viable cells were detected (C. neoformans 1841 [3]): 45 min
suppression of fungi, colonies after 48 h [4]: completely suppressed the fungi
peptide concentration used in cytotoxicity test relative to MIC (safety margin) [5]: 150 fold
MIC (μmol/L) 1841 24 h ([6]; 1841 (serotype D, 24 h, pH 7.5)): 1.6 µmol/L (≈ 3.98 µg/mL)
MIC (μmol/L) 1841 48 h ([6]; 1841 (serotype D, 48 h, pH 7.5)): 1.6 µmol/L (≈ 3.98 µg/mL)
MIC (μmol/L) H99 24 h ([7]; H99 (serotype A, 24 h)): 1.6 µmol/L (≈ 3.98 µg/mL)
MIC (μmol/L) H99 48 h ([7]; H99 (serotype A, 48 h)): 1.6 µmol/L (≈ 3.98 µg/mL)
MIC (μmol/L) KN99α 24 h ([8]; KN99α (serotype A, mating type MATα, 24 h)): 1.6 µmol/L (≈ 3.98 µg/mL)
MIC (μmol/L) KN99α 48 h ([8]; KN99α (serotype A, mating type MATα, 48 h)): 1.6 µmol/L (≈ 3.98 µg/mL)

Bac7 (1-35): mammalian PrAMP fragment, literature (RRIRPRPPRLPRPRPRPLPFPRPGPRPIPRPLPFP; Bactenecin 7; UniProt P19661 131-165, looked up, fragment)
MIC against C. neoformans (C. neoformans; ref Benincasa et al., 2004, Conti et al., 2013): ≥ 4 µM
IC50 in eukaryotic in vitro translation system relative to the E. coli system (in vitro translation): 2.5 fold

N=C(N)NCCCCC(=O)Nc1cc(C(F)(F)F)cc(NC(=O)c2cc(C(=O)Nc3cc(C(F)(F)F)cc(NC(=O)CCCCNC(=N)N)c3O[C@@H]3CCNC3)ncn2)c1O[C@@H]1CCNC1 [brilacidin]
MIC against C. neoformans (C. neoformans; ref Dos Reis et al., 2023): 2.5 µM (≈ 2.34 µg/mL)
